In patent US20100132066A1, “AGROBACTERIUM-MEDIATED METHOD FOR PRODUCING TRANSFORMED PLANT WITHOUT SELECTION STEP” (JAPAN TOBACCO INC., priority 2007, published 2010):

Tests used:
[1] = system: Maize (variety: A188) immature embryos; assay: Regeneration of whole plants from immature embryos cultured on coculture medium supplemented with various types of auxin (Example 1); assay type: cell-based; details: auxin 1.5 mg/l in coculture medium; for Regeneration rate (%): 7 days, no selection step, LSZ medium 30 mg/l hygromycin about 2 weeks, LBA4404 (pSB134), 25 immature embryos; for Vigor: mean score 0-3 of regenerated plants, 2 weeks on regeneration medium
From the text: As used herein, the term “vigor” is intended to mean the growth vigor of a regenerated plant. The vigor of a plant may be measured by any known technique used in the art. For example, in the case of maize, scoring may be performed as follows for each transformed plant tissue after the regeneration step: transformed plant tissue showing no regeneration=0, transformed plant tissue giving a regenerated shoot whose maximum length is less than 5 mm=1, transformed plant tissue giving a regenerated shoot whose maximum length is 5 mm to less than 2 cm=2, and transformed plant tissue giving a regenerated shoot whose maximum length is 2 cm or longer=3, followed by calculating a mean value for all transformed plant tissues to thereby determine their vigor. The method of evaluation of vigor is not limited to this technique, and appropriate modifications may be made to well-known techniques, e.g., depending on the type of target to be evaluated.
25 immature embryos were provided for each test. The bar graph (vertical axis on the left side) represents the vigor of regenerated plants, the line graph (vertical axis on the right side) represents the regeneration rate (calculated by dividing the number of immature embryos showing regeneration in each test by the number of inoculated immature embryos), and the horizontal axis represents the type of auxin contained in a coculture medium. The auxin concentration in the coculture medium was set to 1.5 mg/l for each test. The vigor of regenerated plants was evaluated by scoring as follows: immature embryo showing no regeneration=0, immature embryo giving a regenerated shoot whose maximum length is less than 5 mm=1, immature embryo giving a regenerated shoot whose maximum length is 5 mm to less than 2 cm=2, and immature embryo giving a regenerated shoot whose maximum length is 2 cm or longer=3.
Maize (variety: A188) immature embryos (1.0 to 1 5 mm in size) at 7 to 14 days after pollination were aseptically collected and washed once with LS-inf liquid medium (Non-patent Publication No. 11), followed by pretreatment (thermal treatment at 46° C. for 3 minutes and centrifugation at 15,000 rpm for 10 minutes) to increase gene transfer efficiency. In LS-inf liquid medium containing 100 μM acetosyringone, Agrobacterium strain LBA4404 (pSB134) (Non-patent Publication No. 27) was suspended at about 1.0×10^9 cfu/ml to prepare an inoculum. The thermally-treated and centrifuged immature embryos were mixed with the inoculum, vortexed for 30 seconds, and then allowed to stand for 5 minutes at room temperature.
The number of immature embryos which regenerated into whole plants was determined, and the regenerated plants were examined for their vigor.

[2] = system: Immature embryos (variety: A188); assay: Effect of dicamba and 2,4-D in coculture medium on regeneration (Example 2, FIG. 3); assay type: cell-based, Maize; details: for vigor of regenerated plants: mean score 0-3, coculture medium with this auxin alone (1.5 mg/l), selection step eliminated, FIG. 3
From the text: FIG. 3 is a graph showing the effects of the dicamba/2,4-D ratio on the plant regeneration rate from cocultured immature embryos and on the vigor of regenerated plants. 38 immature embryos were provided for each test. The bar graph (vertical axis on the left side) represents the vigor of regenerated plants, the line graph (vertical axis on the right side) represents the regeneration rate (calculated by dividing the number of immature embryos showing regeneration in each test by the number of inoculated immature embryos), and the horizontal axis represents the percentage of dicamba contained in a coculture medium. The numerical values on the horizontal axis mean that auxin is contained in the coculture medium at the following ratios: 0 mg/l dicamba+1.5 mg/l 2,4-D (0% dicamba), 0.375 mg/l dicamba+1.125 mg/l 2,4-D (25% dicamba), 0.75 mg/l dicamba+0.75 mg/l 2,4-D (50% dicamba), 1.125 mg/l dicamba+0.375 mg/l 2,4-D (75% dicamba), and 1.5 mg/l dicamba+0 mg/l 2,4-D (100% dicamba). The vigor of regenerated plants was evaluated by scoring as follows: immature embryo showing no regeneration=0, immature embryo giving a regenerated shoot whose maximum length is less than 5 mm=1, immature embryo giving a regenerated shoot whose maximum length is 5 mm to less than 2 cm=2, and immature embryo giving a regenerated shoot whose maximum length is 2 cm or longer=3.
The vector U0009B shown in FIG. 2 and SEQ ID NO: 1 was constructed by adding necessary elements to a vector having pSB11 (Non-patent Publication No. 28) as a skeletal structure. […] The number of immature embryos which regenerated into whole plants was determined, and the regenerated plants were examined for their vigor.

[3] = system: Immature embryos (variety: A188); assay: Transformation efficiency with regeneration medium containing blasticidin S (Example 4); assay type: cell-based, Maize; details: for Number of immature embryos Regenerated: about 2 weeks, 46 inoculated
[4] = higher percentage of dicamba (0-100%, rest 2,4-D, total 1.5 mg/l) in coculture medium
[5] = 2 mg/l blasticidin S in regeneration medium

Compound	Regeneration rate (%) [1] [%]	Vigor [1]	vigor of regenerated plants [2]	also measured
O=C(O)COc1cc(Cl)c(Cl)cc1Cl [2,4,5-T, 2,4,5-trichlorophenoxyacetic acid]	84.0	1.5		
O=C(O)COc1ccc(Cl)cc1Cl [2,4-D, 2,4-dichlorophenoxyacetic acid]	84.0		0.3	
COc1c(Cl)ccc(Cl)c1C(=O)O [Dicamba, 3,6-dichloro-o-anisic acid]	100	1.5	2.3	growth of the regenerated plants [2, 4]: more vigorous growth; regeneration rate [2, 4]: higher regeneration rate
Nc1c(Cl)c(Cl)nc(C(=O)O)c1Cl [Picloram, 4-amino-3,5,6-trichloropicolinic acid]	76.4	1.2		
O=C(O)c1cc(I)cc(I)c1I [TIBA, 2,3,5-triiodobenzoic acid]	4.0	0.1		
CN(CC[C@H](N)CC(=O)N[C@H]1C=C[C@H](n2ccc(N)nc2=O)O[C@@H]1C(=O)O)C(=N)N [blasticidin, blasticidin S]				GUS− [3, 5]: 12; Number of immature embryos GUS+ (B) [3, 5]: 19; Striped, dotted (C) [3, 5]: 14; Number of immature embryos Regenerated [3, 5]: 45; Number of immature embryos Regenerated ([3]; 2 mg/l blasticidin S in regeneration medium, listed as blasticidin S): Almost all; B/A (%) ([3]; 2 mg/l blasticidin S, GUS+ per inoculated embryos): 41.3%; C/A (%) ([3]; 2 mg/l blasticidin S, striped/dotted per inoculated embryos): 3.04%
